Data as given in PubChem BioAssay (NCI).
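96-well plates; 48 h exposure; 5 concentrations. Endpoints by linear interpolation between flanking doses. Not reached: highest tested concentration assigned. At the TGI there is no net growth.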

How the values were obtained:
Experiment in all cases: NCI tumour cell line growth inhibition, 48 h
[1] = system: CAKI-1 renal
[2] = system: HCT-15 colon
[3] = system: HOP-92 NSCLC
[4] = system: K-562 leukemia
[5] = system: M14 melanoma
[6] = system: MDA-MB-435
[7] = system: MOLT-4 leukemia
[8] = system: OVCAR-5 ovarian
[9] = system: OVCAR-8 ovarian
[10] = system: RXF 393 renal
[11] = system: SK-OV-3 ovarian

Row | SMILES | TGI [1] [µM] | TGI [2] [µM] | TGI [3] [µM] | TGI [4] [µM] | TGI [5] [µM] | TGI [6] [µM] | TGI [7] [µM] | TGI [8] [µM] | TGI [9] [µM] | TGI [10] [µM] | TGI [11] [µM]
1 | CC1=C[P+](c2ccccc2)(c2ccccc2)c2ccccc2O1 | > 100 | > 100 | 9.34 | > 100 | > 100 | 12 | 21 | > 100 | > 100 | > 100 | > 100
2 | Cc1nc2c(Cl)cc(Cl)cc2c2c1CCO2 | > 100 | > 100 | > 100 | > 100 | > 100 | > 100 | > 100 | > 100 | > 100 | > 100 | 
3 | C/C(Cc1ccc2c(c1)OCO2)=N\N=c1\sc2ccccc2n1C | > 100 | > 100 | > 100 | > 100 | > 100 | > 100 | > 100 | > 100 | > 100 | > 100 | 
4 | CC1[C@@]2(O[C@@H]3C=C4C5CCC6Cc7nc8c(nc7C[C@@]6(C)C5C[C@H](O)[C@@]4(C)[C@]13O)CC1CCc3c(cc4c5c3C(O)C[C@H]5[C@@H](C)C3(O4)OC(C)(C)CC3O)[C@]1(C)C8)O[C@@](C)(CO)C[C@@H]2O (some centres undefined) | > 3.72 | > 3.72 |  | > 3.72 |  |  |  | 1.48 | > 3.72 | 0.153 | 0.976
5 | COc1ccc(C2=C(OC(C)=O)c3cccn3-c3ccc(Cl)cc3S2)cc1 | > 10 | > 10 | 6.07 | 5.69 | > 10 | 4.84 | 7.47 |  | > 10 | > 10 | > 10
6 | CCN(CC)CCC(=O)/C=C/c1ccc(Cl)c(Cl)c1 |  | > 10 | > 10 | > 10 | > 10 | > 10 | > 10 | > 10 | > 10 |  | 
7 | COC(=O)c1csc(-c2csc(CCNC(=O)OC(C)(C)C)n2)n1 |  | > 100 | > 100 | > 100 | > 100 | > 100 | > 100 | > 100 | > 100 | > 100 | > 100
8 | O=C1OC(C(O)CO)C(C(O)CO)OC1=O (centres undefined) | > 10 | > 10 |  | > 10 | > 10 | > 10 | > 10 | > 10 | > 10 | > 10 | 
9 | Cc1cccc2c(=O)c3cccc([C@H](C)C(=O)O)c3oc12 | > 100 | > 100 | > 100 | > 100 | > 100 | > 100 | > 100 |  | > 100 |  | > 100
10 | O=c1cc(NNc2ccccc2)[nH]c(=O)[nH]1 |  | 30 |  | 91.1 |  | 33.7 | 66.1 | > 100 | 46.1 |  | > 100
11 | O=C(COc1cc(=O)oc2ccccc12)c1ccccc1 | 32.5 | > 100 | 33 | > 100 | > 100 |  | > 100 | > 100 | 93.8 |  | 
12 | C(=N\NC1=NCCCCN1)/c1ccc2ccccc2c1 |  | 87.5 | 62.7 | 40.2 | 28 | 34.7 | 53.2 | 76.7 | > 100 | 60.8 | > 100
13 | O=C1C=C(NCCc2ccc(O)c([N+](=O)[O-])c2)C(=O)c2[nH]cnc21 |  | > 100 |  | 42.7 | 32.3 | 33.7 | 38.2 | > 100 | 68.7 |  | 
14 | Nc1cc(CO)cc(Nc2c3ccccc3nc3ccccc23)c1 | 31.7 | 34.4 |  | > 100 | 31.3 | 32.6 | > 100 | 32.2 | 29.5 | 31.4 | 29.5
15 | O=[N+]([O-])c1ccc(C[P+]2(c3ccccc3)CCCCC2)cc1 (tested in a mixture with another compound) | > 100 | > 100 |  | > 100 | > 100 |  | > 100 | > 100 | > 100 | > 100 | > 100
16 | CC1OC(NCCNCCNC2OC(C)C(O)C(O)C2O)C(O)C(O)C1O (centres undefined) |  | > 100 | > 100 | > 100 | > 100 |  | > 100 | > 100 | > 100 | > 100 | 

Row | SMILES | TGI [1] [µM] | TGI [2] [µM] | TGI [3] [µM] | TGI [4] [µM] | TGI [5] [µM] | TGI [6] [µM] | TGI [7] [µM] | TGI [8] [µM] | TGI [9] [µM] | TGI [10] [µM] | TGI [11] [µM]
17 | COc1ccc(-c2c(C#N)c(N)[nH]c(=S)c2C#N)cc1 | > 100 | > 100 | > 100 | > 100 | > 100 | 95.5 | > 100 | > 100 | > 100 | 98.3 | 
18 | COc1ccc(C2CC(c3sc(Nc4ccc(C)cc4)nc3C)=NN2)cc1 (centres undefined) | 41.2 | 39.1 | 30.3 | 39.1 |  |  | 32.7 | 39.2 | 35.9 | 27.1 | 44.1
19 | CCC(C)C(Nc1c2ccccc2nc2c(C(=O)NCCN(C)C)cccc12)C(=O)O (centres undefined) |  | > 100 | 61.1 | > 100 | 44.1 | 41.9 | > 100 | > 100 | > 100 |  | > 100
20 | COc1cc(/C=C/C(=O)CC(=O)/C=C/c2cc(C)c(O)c(OC)c2)cc(C)c1O | > 100 | > 100 | > 100 | > 100 | > 100 | > 100 | > 100 | > 100 | > 100 |  | > 100
21 | COC(=O)c1ccc(OCCn2nnc(C(=O)NN)c2C(=O)NN)cc1 | > 100 | > 100 | > 100 | > 100 | > 100 | > 100 | > 100 | > 100 | > 100 |  | 
22 | CCOC(=O)/C(C(N)=O)=C(\O)C(=O)/C=C(\O)c1ccc(Cl)cc1 | 64 | 34.8 | 53.9 |  | 48.3 | 57.7 | 40.6 | 54.3 | 31.7 | 32.2 | > 100
23 | Cc1cc(=O)[nH]c2cc(NC(=O)C(C)NC(=O)C(C)NC(=O)C(C)NC(=O)OC(C)(C)C)ccc12 (centres undefined) | > 15 | > 15 | > 15 | > 15 | > 15 | > 15 | > 15 | > 15 | > 15 | > 15 | 
24 | CC(C#N)(NO)C(C)(C#N)NO (centres undefined) | > 100 | > 100 |  | > 100 | > 100 | > 100 | > 100 | > 100 | > 100 | > 100 | > 100
25 | Cc1[nH]c(=O)nc(N/N=C/c2c3ccccc3c(Cl)c3ccccc23)c1C(=O)Nc1ccc(Cl)cc1 | > 100 | > 100 |  | > 100 | > 100 | > 100 | > 100 | > 100 | > 100 |  | 
26 | O=C1CCCC2=C1CC1=C(CCCC1=O)N2c1ccc(Cl)cc1 | > 100 | > 100 |  | > 100 | > 100 | > 100 | > 100 | > 100 | > 100 | > 100 | > 100
27 | COc1cc(/C=C/c2ccc(OC)c(OC)c2)oc(=O)c1 | > 114 | > 250 | > 250 | > 250 |  |  | > 250 | > 250 | > 11.6 | > 216 | > 250
28 | CCOP(=O)(OCC)C(c1ccc(F)cc1)N(C(=O)NC(F)(F)F)c1ccc(F)cc1 (centres undefined) | > 100 | > 100 |  | > 100 | > 100 | > 100 | > 100 | > 100 | > 100 | > 100 | 
29 | CN1C/C(=C\c2cccs2)C2=NN(c3ccccc3)C(c3cccs3)C2C1 (centres undefined) | > 100 | > 100 |  | > 100 | > 68.3 | 3.86 | > 100 | > 100 | > 100 |  | > 100
30 | CN(C)CCNC(=O)c1cccc2c1C(=O)c1ccccc1C2=O | > 100 | > 84.2 | > 73.7 | 54.5 |  |  | > 71.7 | > 100 | 88.3 | > 100 | > 100
31 | CC(O)C(CO)NC(=O)C1CSSCC(NC(=O)C(N)Cc2ccccc2)C(=O)NC(Cc2ccccc2)C(=O)NC(Cc2c[nH]c3ccccc23)C(=O)NC(CCCCN)C(=O)NC(C(C)O)C(=O)N1 (centres undefined) | > 100 | > 100 | > 100 | > 100 | > 100 | > 100 | > 100 | > 100 | > 100 | > 100 | 
32 | CN(C)N1C(=O)C(=O)N(c2cccc3ccccc23)C1=O | > 10 | > 10 |  | > 10 | > 10 | > 10 | > 10 | > 10 | > 10 | > 10 | > 10
